One block for each molecule: values may come before it.
What was measured:
chicken GPR120 (cGPR120) [1] = molecular target: T1, chicken GPR120 (cGPR120) (Gallus gallus, UniProt A0A8V0ZCZ6); assay: Fura-2 Ca2+ imaging in transfected HEK293T cells, Hill fit; format: cell-based; conditions: agonist, pH 7.4, about 37 C
T1 sequence (A0A8V0ZCZ6 1-362): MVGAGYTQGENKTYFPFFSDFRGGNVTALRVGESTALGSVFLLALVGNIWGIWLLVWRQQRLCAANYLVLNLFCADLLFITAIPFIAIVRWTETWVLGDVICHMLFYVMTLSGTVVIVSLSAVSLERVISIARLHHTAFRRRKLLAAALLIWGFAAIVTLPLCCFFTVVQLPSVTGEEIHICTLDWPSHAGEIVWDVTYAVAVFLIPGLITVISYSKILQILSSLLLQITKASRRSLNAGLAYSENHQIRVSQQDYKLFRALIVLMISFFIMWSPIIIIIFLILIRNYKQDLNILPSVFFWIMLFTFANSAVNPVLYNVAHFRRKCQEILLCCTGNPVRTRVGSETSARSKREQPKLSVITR

chicken GPR120 (cGPR120) [2] = molecular target: T1, chicken GPR120 (cGPR120); assay: as above; format: cell-based

Structure (SMILES): CC/C=C\C/C=C\C/C=C\C/C=C\C/C=C\C/C=C\CCC(=O)O [DHA, docosahexaenoic acid]
Fura-2 Ca2+ imaging in transfected HEK293T cells, Hill fit (chicken GPR120 (cGPR120) [1]; 0.1-3 mmol/L in well, stock in ethanol): EPA and DHA activated cGPR120 in a dose-dependent manner

EC50 (chicken GPR120 (cGPR120) [2]): 1.04 mM
Structure (SMILES): CCCCC/C=C\C/C=C\C/C=C\C/C=C\CCCC(=O)O [AA, arachidonic acid]

Structure (SMILES): CCCCC/C=C\C/C=C\CCCCCCCC(=O)O [LA, linoleic acid]
Fura-2 Ca2+ imaging in transfected HEK293T cells, Hill fit (chicken GPR120 (cGPR120) [1]; 1-10 mmol/L in well, stock in DMSO): cGPR120 cells were activated in a dose-dependent manner by LA

Structure (SMILES): CC/C=C\C/C=C\C/C=C\C/C=C\C/C=C\CCCC(=O)O [EPA, eicosapentaenoic acid]
Fura-2 Ca2+ imaging in transfected HEK293T cells, Hill fit (chicken GPR120 (cGPR120) [1]; 0.1-7 mmol/L in well, stock in ethanol): EPA and DHA activated cGPR120 in a dose-dependent manner
